Data published in PubChem BioAssay (NCI).
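48-hour exposure; five concentrations; linearly interpolated endpoints. Here, GI50 denotes the concentration required for 50% inhibition of growth. Definition used: TGI = concentration required for complete inhibition of growth.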

Key:
Assay in all cases: growth of human tumour cells (NCI), 48 h
MDA-MB-231 breast = tested on: MDA-MB-231 breast
DU-145 prostate = tested on: DU-145 prostate
NCI/ADR-RES ovarian = tested on: NCI/ADR-RES ovarian
LOX IMVI melanoma = tested on: LOX IMVI melanoma
TK-10 renal = tested on: TK-10 renal
HT29 colon = tested on: HT29 colon
SK-MEL-2 melanoma = tested on: SK-MEL-2 melanoma
MCF7 breast = tested on: MCF7 breast
SN12C renal = tested on: SN12C renal
786-0 renal = tested on: 786-0 renal
OVCAR-4 ovarian = tested on: OVCAR-4 ovarian
COLO 205 colon = tested on: COLO 205 colon
MDA-MB-468 breast = tested on: MDA-MB-468 breast
MALME-3M melanoma = tested on: MALME-3M melanoma
UACC-62 melanoma = tested on: UACC-62 melanoma
MDA-MB-435 = tested on: MDA-MB-435
SNB-75 CNS = tested on: SNB-75 CNS
OVCAR-3 ovarian = tested on: OVCAR-3 ovarian
SK-MEL-5 melanoma = tested on: SK-MEL-5 melanoma
HOP-62 NSCLC = tested on: HOP-62 NSCLC
CCRF-CEM leukemia = tested on: CCRF-CEM leukemia
T-47D breast = tested on: T-47D breast
RXF 393 renal = tested on: RXF 393 renal
UO-31 renal = tested on: UO-31 renal
SR leukemia = tested on: SR leukemia
NCI-H226 lung = tested on: NCI-H226 lung
OVCAR-5 ovarian = tested on: OVCAR-5 ovarian
NCI-H522 lung = tested on: NCI-H522 lung
U251 CNS = tested on: U251 CNS
RPMI-8226 leukemia = tested on: RPMI-8226 leukemia
UACC-257 melanoma = tested on: UACC-257 melanoma
KM12 colon = tested on: KM12 colon
SK-MEL-28 melanoma = tested on: SK-MEL-28 melanoma
A549 NSCLC = tested on: A549 NSCLC
MOLT-4 leukemia = tested on: MOLT-4 leukemia
SW-620 colon = tested on: SW-620 colon
SF-539 CNS = tested on: SF-539 CNS
CAKI-1 renal = tested on: CAKI-1 renal
HCC-2998 colon = tested on: HCC-2998 colon
ACHN renal = tested on: ACHN renal
SF-268 CNS = tested on: SF-268 CNS
SK-OV-3 ovarian = tested on: SK-OV-3 ovarian
NCI-H460 lung = tested on: NCI-H460 lung
SF-295 CNS = tested on: SF-295 CNS
PC-3 prostate = tested on: PC-3 prostate
A498 renal = tested on: A498 renal
HCT-116 colon = tested on: HCT-116 colon
HS 578T breast = tested on: HS 578T breast
K-562 leukemia = tested on: K-562 leukemia
BT-549 breast = tested on: BT-549 breast
HOP-92 NSCLC = tested on: HOP-92 NSCLC
M14 melanoma = tested on: M14 melanoma
HCT-15 colon = tested on: HCT-15 colon
SNB-19 CNS = tested on: SNB-19 CNS
IGROV1 ovarian = tested on: IGROV1 ovarian
OVCAR-8 ovarian = tested on: OVCAR-8 ovarian

For COc1cc(OC)c(S(=O)(=O)N(CCCl)CCCl)cc1C(=O)/C=C/c1cc(OC)c(OC)c(OC)c1, the GI50 (MDA-MB-231 breast) was 3.95 µM, the TGI (MDA-MB-231 breast) was greater than 100 µM and the GI50 (DU-145 prostate) was 2.71 µM. It also gave a TGI (DU-145 prostate) of 14.8 µM, a GI50 (NCI/ADR-RES ovarian) of 2.58 µM and a TGI (NCI/ADR-RES ovarian) greater than 100 µM. The GI50 (LOX IMVI melanoma) was 1.44 µM, the TGI (LOX IMVI melanoma) was 2.89 µM and the GI50 (TK-10 renal) was 6.09 µM. For the same molecule, the TGI (TK-10 renal) was 75 µM, the GI50 (HT29 colon) was 2.34 µM and the TGI (HT29 colon) was 5.92 µM. The GI50 (SK-MEL-2 melanoma) was 2.06 µM, the TGI (SK-MEL-2 melanoma) was 4.65 µM and the GI50 (MCF7 breast) was 1.01 µM. It also gave a TGI (MCF7 breast) of 4.36 µM, a GI50 (SN12C renal) of 2.26 µM and a TGI (SN12C renal) of 13 µM. For the same molecule, the GI50 (786-0 renal) was 1.95 µM, the TGI (786-0 renal) was 5.66 µM and the GI50 (OVCAR-4 ovarian) was 2.78 µM. For the same molecule, the TGI (OVCAR-4 ovarian) was greater than 100 µM, the GI50 (COLO 205 colon) was 2.37 µM and the TGI (COLO 205 colon) was 4.46 µM. It also gave a GI50 (MDA-MB-468 breast) of 1.52 µM, a TGI (MDA-MB-468 breast) of 3.66 µM and a GI50 (MALME-3M melanoma) of 2.48 µM. The TGI (MALME-3M melanoma) was 7.18 µM, the GI50 (UACC-62 melanoma) was 2.1 µM and the TGI (UACC-62 melanoma) was 4.94 µM. For the same molecule, the GI50 (MDA-MB-435) was 2.53 µM, the TGI (MDA-MB-435) was 7.51 µM and the GI50 (SNB-75 CNS) was 2.56 µM. The TGI (SNB-75 CNS) was 8.53 µM, the GI50 (OVCAR-3 ovarian) was 2.12 µM and the TGI (OVCAR-3 ovarian) was 6.62 µM. It also gave a GI50 (SK-MEL-5 melanoma) of 1.84 µM, a TGI (SK-MEL-5 melanoma) of 3.64 µM and a GI50 (HOP-62 NSCLC) of 3.77 µM. It also gave a TGI (HOP-62 NSCLC) of 22.8 µM, a GI50 (CCRF-CEM leukemia) of 1.69 µM and a TGI (CCRF-CEM leukemia) greater than 100 µM. The GI50 (T-47D breast) was 3.53 µM, the TGI (T-47D breast) was greater than 100 µM and the GI50 (RXF 393 renal) was 1.24 µM. The TGI (RXF 393 renal) was 2.83 µM, the GI50 (UO-31 renal) was 1.54 µM and the TGI (UO-31 renal) was 2.92 µM. It also gave a GI50 (SR leukemia) of 0.993 µM, a TGI (SR leukemia) greater than 100 µM and a GI50 (NCI-H226 lung) of 2.61 µM. The TGI (NCI-H226 lung) was 8.95 µM, the GI50 (OVCAR-5 ovarian) was 2.51 µM and the TGI (OVCAR-5 ovarian) was 6.8 µM. For the same molecule, the GI50 (NCI-H522 lung) was 1.66 µM, the TGI (NCI-H522 lung) was 3.78 µM and the GI50 (U251 CNS) was 1.78 µM. It also gave a TGI (U251 CNS) of 3.68 µM, a GI50 (RPMI-8226 leukemia) of 2.52 µM and a TGI (RPMI-8226 leukemia) greater than 100 µM. For the same molecule, the GI50 (UACC-257 melanoma) was 1.66 µM, the TGI (UACC-257 melanoma) was 3.89 µM and the GI50 (KM12 colon) was 1.93 µM. It also gave a TGI (KM12 colon) of 4.26 µM, a GI50 (SK-MEL-28 melanoma) of 1.82 µM and a TGI (SK-MEL-28 melanoma) of 3.54 µM. It also gave a GI50 (A549 NSCLC) of 3.11 µM, a TGI (A549 NSCLC) greater than 100 µM and a GI50 (MOLT-4 leukemia) of 2.04 µM. For the same molecule, the TGI (MOLT-4 leukemia) was greater than 100 µM, the GI50 (SW-620 colon) was 2.69 µM and the TGI (SW-620 colon) was 25.1 µM. The GI50 (SF-539 CNS) was 1.73 µM, the TGI (SF-539 CNS) was 3.61 µM and the GI50 (CAKI-1 renal) was 2.72 µM. For the same molecule, the TGI (CAKI-1 renal) was greater than 100 µM, the GI50 (HCC-2998 colon) was 1.97 µM and the TGI (HCC-2998 colon) was 3.54 µM. The GI50 (ACHN renal) was 2.08 µM, the TGI (ACHN renal) was 6.16 µM and the GI50 (SF-268 CNS) was 2.62 µM. The TGI (SF-268 CNS) was 7.7 µM, the GI50 (SK-OV-3 ovarian) was 3.47 µM and the TGI (SK-OV-3 ovarian) was 13 µM. For the same molecule, the GI50 (NCI-H460 lung) was 1.95 µM, the TGI (NCI-H460 lung) was 5.08 µM and the GI50 (SF-295 CNS) was 2.86 µM. For the same molecule, the TGI (SF-295 CNS) was 35.4 µM, the GI50 (PC-3 prostate) was 3.85 µM and the TGI (PC-3 prostate) was greater than 100 µM. For the same molecule, the GI50 (A498 renal) was 2.79 µM, the TGI (A498 renal) was 7.23 µM and the GI50 (HCT-116 colon) was 1.23 µM. It also gave a TGI (HCT-116 colon) of 2.82 µM, a GI50 (HS 578T breast) of 8.55 µM and a TGI (HS 578T breast) greater than 100 µM. The GI50 (K-562 leukemia) was 1.3 µM, the TGI (K-562 leukemia) was greater than 100 µM and the GI50 (BT-549 breast) was 1.37 µM. The TGI (BT-549 breast) was 2.92 µM, the GI50 (HOP-92 NSCLC) was greater than 100 µM and the TGI (HOP-92 NSCLC) was greater than 100 µM. The GI50 (M14 melanoma) was 2.09 µM, the TGI (M14 melanoma) was 5.45 µM and the GI50 (HCT-15 colon) was 1.12 µM. For the same molecule, the TGI (HCT-15 colon) was 3.98 µM, the GI50 (SNB-19 CNS) was 2.37 µM and the TGI (SNB-19 CNS) was 5.71 µM. For the same molecule, the GI50 (IGROV1 ovarian) was 3.09 µM, the TGI (IGROV1 ovarian) was 9.05 µM and the GI50 (OVCAR-8 ovarian) was 4.06 µM. For the same molecule, the TGI (OVCAR-8 ovarian) was greater than 100 µM.
